Patent US20220000111A1, “METHODS OF INCREASING ALMOND YIELD” (Valent U.S.A. LLC, priority 2020, published 2022)
Each block holds one compound with its values, some of them ahead of it.

What was measured:
Format in all cases: in vivo
[1] = system: almond trees; assay: Example 1: foliar AVG-HCl application to almond trees, 2018-2019, nutmeat yield and kernel doubling at harvest; settings: for percentage of shells harvested that contained two nut kernels, Average / yield at harvest of almond nutmeat, Average: average of trials
Experimental: […] of AVG applications were performed over a 2-year period. Each set of applications included a set of untreated control (“UTC”) trees. For the two sets of applications performed during the 2018 calendar year AVG-HCl was applied to almond trees either between 10% and full bloom (i.e. bloom) or between 6-7 weeks following full bloom (i.e. post-bloom). For the three sets of applications performed during the 2019 calendar year an additional application was performed as follows: 3-4 weeks post-bloom in combination with 6-7 weeks post-bloom.

[2] = system: almond trees; assay: Example 2: foliar AVG-HCl application at full bloom or after, nonpareil and carmel almonds; settings: for % Kernel Doubling / Nutmeat Yield / Nuts/Tree: 124 g/Ha
Experimental: 2 sets of AVG applications were performed on 2 varieties of almonds, nonpareil and […]. For the two sets of applications performed AVG-HCl was applied to almond trees either at full bloom or after full bloom, specifically at 22, 26, 29 or 33 days after full bloom (“DAFB”).

[3] = system: almond trees; assay: Example 3: foliar AVG-HCl application at full bloom or after, nonpareil and carmel almonds; settings: for % Kernel Doubling / Nutmeat Yield / Nuts/Tree: 124 g/Ha
Experimental: 2 sets of AVG applications were performed on 2 varieties of almonds, nonpareil and […]. For the two sets of applications performed AVG-HCl was applied to almond trees either at full bloom or after full bloom, specifically 15, 22, 26, 32, 36 or 38 DAFB.

[4] = system: almond trees; assay: Example 4: foliar AVG-HCl application to nonpareil almonds at Newman and Sutter, 2020; settings: for percentage of shells harvested that contained two nut kernels / yield at harvest of almond nutmeat: nonpareil, 124 g/Ha
Experimental: 2 sets of AVG applications were performed on nonpareil almonds at Newman, Calif. and Sutter, Calif. in 2020. Each set of applications included a set of untreated control (“UTC”) trees. AVG-HCl was applied to almond trees either at 50% bloom (i.e. bloom), shuck split, or 7 days following shuck split.

[5] = 3-4 weeks Post-bloom & 6-7 weeks Post-bloom, 2 apps, 62 g/Ha each
[6] = 3-4 weeks Post-bloom & 6-7 weeks Post-bloom, 2 apps, 62 g/Ha each, trial 2019-1
[7] = 3-4 weeks Post-bloom & 6-7 weeks Post-bloom, 2 apps, 62 g/Ha each, trial 2019-2
[8] = 3-4 weeks Post-bloom & 6-7 weeks Post-bloom, 2 apps, 62 g/Ha each, trial 2019-3
[9] = 6-7 weeks Post-bloom, 1 app, 124 g/Ha
[10] = 6-7 weeks Post-bloom, 1 app, 124 g/Ha, trial 2018-1 (second column)
[11] = 6-7 weeks Post-bloom, 1 app, 124 g/Ha, trial 2019-1
[12] = 6-7 weeks Post-bloom, 1 app, 124 g/Ha, trial 2019-2
[13] = 6-7 weeks Post-bloom, 1 app, 124 g/Ha, trial 2019-3
[14] = Bloom, 1 app, 124 g/Ha, trial 2018-1 (second column)
[15] = Bloom, 1 app, 124 g/Ha, trial 2019-1
[16] = Bloom, 1 app, 124 g/Ha, trial 2019-2
[17] = Bloom, 1 app, 124 g/Ha, trial 2019-3
[18] = Newman, 7-days post shuck split
[19] = Sutter, 7-days post shuck split

percentage of shells harvested that contained two nut kernels, Average [1, 5]: 1.55 b % | percentage of shells harvested that contained two nut kernels [1, 6]: 1.3 b % | percentage of shells harvested that contained two nut kernels [1, 7]: 1.5 abc % | percentage of shells harvested that contained two nut kernels [1, 8]: 1.9 b % | percentage of shells harvested that contained two nut kernels, Average [1, 9]: 2.11 b % | percentage of shells harvested that contained two nut kernels [1, 10]: 6.6 b % | percentage of shells harvested that contained two nut kernels [1, 11]: 2.5 ab % | percentage of shells harvested that contained two nut kernels [1, 12]: 1.08 bc % | percentage of shells harvested that contained two nut kernels [1, 13]: 0.7 bc % | percentage of shells harvested that contained two nut kernels, Average ([1]; Bloom, 1 app, 124 g/Ha): 8.62 a % | percentage of shells harvested that contained two nut kernels [1, 14]: 27.7 a % | percentage of shells harvested that contained two nut kernels [1, 15]: 3.5 a % | percentage of shells harvested that contained two nut kernels [1, 16]: 2.92 ab % | percentage of shells harvested that contained two nut kernels [1, 17]: 15.9 a % | % Kernel Doubling ([2]; carmel, 22 DAFB): 5.6 bc % | % Kernel Doubling ([2]; carmel, 26 DAFB): 3.7 c % | % Kernel Doubling ([2]; carmel, Full Bloom): 7.6 a % | % Kernel Doubling ([2]; nonpareil, 29 DAFB): 1.4 b % | % Kernel Doubling ([2]; nonpareil, 33 DAFB): 0.4 b % | % Kernel Doubling ([2]; nonpareil, Full Bloom): 3.8 a % | % Kernel Doubling ([3]; carmel, 15 DAFB): 0.4 b % | % Kernel Doubling ([3]; carmel, 22 DAFB): 1.4 b % | % Kernel Doubling ([3]; carmel, 32 DAFB): 0.6 b % | % Kernel Doubling ([3]; carmel, 38 DAFB): 1 b % | % Kernel Doubling ([3]; carmel, Full Bloom): 8.4 a % | % Kernel Doubling ([3]; nonpareil, 26 DAFB): 0.8 b % | % Kernel Doubling ([3]; nonpareil, 36 DAFB): 0.6 c % | % Kernel Doubling ([3]; nonpareil, Full Bloom): 2.0 a % | percentage of shells harvested that contained two nut kernels [4, 18]: 3.0% | percentage of shells harvested that contained two nut kernels ([4]; Newman, Bloom (50% bloom)): 2.7% | percentage of shells harvested that contained two nut kernels ([4]; Newman, Shuck split): 2.2% | percentage of shells harvested that contained two nut kernels [4, 19]: 0.5% | percentage of shells harvested that contained two nut kernels ([4]; Sutter, Bloom (50% bloom)): 1.2% | percentage of shells harvested that contained two nut kernels ([4]; Sutter, Shuck split): 0.7%
SMILES: Cl.NCCO/C=C/[C@H](N)C(=O)O [AVG-HCl]
yield at harvest of almond nutmeat, Average [1, 5]: 1229 a kilograms per hectare | yield at harvest of almond nutmeat [1, 6]: 1164 kilograms per hectare | yield at harvest of almond nutmeat [1, 7]: 1698 a kilograms per hectare | yield at harvest of almond nutmeat [1, 8]: 825 b kilograms per hectare | yield at harvest of almond nutmeat, Average [1, 9]: 1033 ab kilograms per hectare | yield at harvest of almond nutmeat ([1]; 6-7 weeks Post-bloom, 1 app, 124 g/Ha, trial 2018-1 (first column)): 721 kilograms per hectare | yield at harvest of almond nutmeat [1, 10]: 1345 a kilograms per hectare | yield at harvest of almond nutmeat [1, 11]: 1168 kilograms per hectare | yield at harvest of almond nutmeat [1, 12]: 1220 b kilograms per hectare | yield at harvest of almond nutmeat [1, 13]: 713 bc kilograms per hectare | yield at harvest of almond nutmeat, Average ([1]; Bloom, 1 app, 124 g/Ha): 1068 ab kilograms per hectare | yield at harvest of almond nutmeat ([1]; Bloom, 1 app, 124 g/Ha, trial 2018-1 (first column)): 712 kilograms per hectare | yield at harvest of almond nutmeat [1, 14]: 1148 b kilograms per hectare | yield at harvest of almond nutmeat [1, 15]: 1204 kilograms per hectare | yield at harvest of almond nutmeat [1, 16]: 1198 b kilograms per hectare | yield at harvest of almond nutmeat [1, 17]: 1031 a kilograms per hectare | Nutmeat Yield ([2]; carmel, 22 DAFB): 7.94 kg/tree | Nuts/Tree ([2]; carmel, 22 DAFB): 8499 b nuts per tree | Nutmeat Yield ([2]; carmel, 26 DAFB): 8.50 kg/tree | Nuts/Tree ([2]; carmel, 26 DAFB): 9676 a nuts per tree | Nutmeat Yield ([2]; carmel, Full Bloom): 7.04 kg/tree | Nuts/Tree ([2]; carmel, Full Bloom): 7039 b nuts per tree | Nutmeat Yield ([2]; nonpareil, 29 DAFB): 8.64 a kg/tree | Nuts/Tree ([2]; nonpareil, 29 DAFB): 8435 a nuts per tree | Nutmeat Yield ([2]; nonpareil, 33 DAFB): 7.89 ab kg/tree | Nuts/Tree ([2]; nonpareil, 33 DAFB): 8350 a nuts per tree | Nutmeat Yield ([2]; nonpareil, Full Bloom): 8.03 ab kg/tree | Nuts/Tree ([2]; nonpareil, Full Bloom): 8153 ab nuts per tree | Nutmeat Yield ([3]; carmel, 15 DAFB): 6.00 kg/tree | Nuts/Tree ([3]; carmel, 15 DAFB): 7271 nuts per tree | Nutmeat Yield ([3]; carmel, 22 DAFB): 5.40 kg/tree | Nuts/Tree ([3]; carmel, 22 DAFB): 7427 nuts per tree | Nutmeat Yield ([3]; carmel, 32 DAFB): 5.30 kg/tree | Nuts/Tree ([3]; carmel, 32 DAFB): 6972 nuts per tree | Nutmeat Yield ([3]; carmel, 38 DAFB): 7.00 kg/tree | Nuts/Tree ([3]; carmel, 38 DAFB): 8875 nuts per tree | Nutmeat Yield ([3]; carmel, Full Bloom): 6.10 kg/tree | Nuts/Tree ([3]; carmel, Full Bloom): 7097 nuts per tree | Nutmeat Yield ([3]; nonpareil, 26 DAFB): 5.9 kg/tree | Nuts/Tree ([3]; nonpareil, 26 DAFB): 7636.8 nuts per tree | Nutmeat Yield ([3]; nonpareil, 36 DAFB): 6 kg/tree | Nuts/Tree ([3]; nonpareil, 36 DAFB): 7789.8 nuts per tree | Nutmeat Yield ([3]; nonpareil, Full Bloom): 4.3 kg/tree | Nuts/Tree ([3]; nonpareil, Full Bloom): 5251.6 nuts per tree | yield at harvest of almond nutmeat [4, 18]: 3726 a kilograms per hectare | yield at harvest of almond nutmeat ([4]; Newman, Bloom (50% bloom)): 3188 c kilograms per hectare | yield at harvest of almond nutmeat ([4]; Newman, Shuck split): 3369 b kilograms per hectare | yield at harvest of almond nutmeat [4, 19]: 3558 ab kilograms per hectare | yield at harvest of almond nutmeat ([4]; Sutter, Bloom (50% bloom)): 3658 a kilograms per hectare | yield at harvest of almond nutmeat ([4]; Sutter, Shuck split): 3758 a kilograms per hectare

SMILES: NCCO/C=C/[C@H](N)C(=O)O (stereo in doubt) [AVG, [S]-trans-2-amino-4-(2-aminoethoxy)-3-butenoic acid]
kernel doubling, in words ([1]; application during bloom (Table 2)): statistically significant increase in kernel doubling | nutmeat yield, in words ([1]; application during bloom, versus untreated control (Table 1)): increases nutmeat yield over untreated control | kernel doubling, in words ([1]; application post-bloom (Table 2)): did not result in a statistically significant increase in kernel doubling | nutmeat yield, in words ([1]; application post-bloom, versus bloom treatment (Table 1)): greater increase in nutmeat yield than that obtained when treating during bloom | nutmeat yield, in words ([2]; application during bloom or following full bloom, nonpareil and carmel (Tables 3 and 4)): increases nutmeat yield | kernel doubling, in words ([2]; application during bloom, nonpareil and carmel (Tables 3 and 4)): statistically significant increase in kernel doubling | kernel doubling, in words ([2]; application post-bloom, nonpareil and carmel (Tables 3 and 4)): did not result in a statistically significant increase in kernel doubling | nutmeat yield, in words ([3]; application during bloom or following full bloom, nonpareil and carmel (Tables 5 and 6)): increases nutmeat yield | kernel doubling, in words ([3]; application during bloom, nonpareil and carmel (Tables 5 and 6)): statistically significant increase in kernel doubling | kernel doubling, in words ([3]; application post-bloom, nonpareil and carmel (Tables 5 and 6)): did not result in a statistically significant increase in kernel doubling | nutmeat yield, in words ([4]; application during bloom, versus untreated control (Table 7)): increases nutmeat yield over untreated control | kernel doubling, in words ([4]; application during bloom, Sutter, Calif. trial (Table 8)): statistically significant increase in kernel doubling | kernel doubling, in words ([4]; application post-bloom (Table 8)): did not result in a statistically significant increase in kernel doubling | nutmeat yield, in words ([4]; application post-bloom, versus bloom treatment (Table 7)): greater increase in nutmeat yield than that obtained when treating during bloom
